Results as given in ChEMBL document CHEMBL3045919, “Disease-controlling effect of a novel fungicide pyribencarb against Botrytis cinerea” (J Pestic Sci, 2010).
Converted amounts (≈) assume the structure as drawn. The source made the active and inactive calls. The calls are words filed in the database; no cut-off is given here.

Key:
Botrytis cinerea [1] = experiment: Antifungal activity against Botryotinia fuckeliana in Eggplant seedlings assessed as Eggplant gray mold diseased flowers and fruits in field trials at 100 ug/ml 3 applications at 7 days intervals (reference value: 52.7%); assay type: functional
Botrytis cinerea [2] = experiment: Antifungal activity against Botryotinia fuckeliana in Kidney bean assessed as Kidney bean gray mold diseased pods in field trials at 100 ug/ml 3 applications at 9 days intervals (reference value: 21%); assay type: functional
Botrytis cinerea [3] = experiment: Antifungal activity against Botryotinia fuckeliana in Cucumber seedlings assessed as reduction of gray mold diseases at 3 ug/ml compound spraying was performed 24 hr after inoculation by curative effect assay; assay type: functional; design: scale not given: the % may be the effect or the level left
Botrytis cinerea [4] = experiment: Antifungal activity against Botryotinia fuckeliana in Cucumber seedlings cotyledon stage assessed as suppression of gray mold diseases measured after 7 days by rain fastness activity assay; assay type: functional, organism-based
Botrytis cinerea [5] = experiment: Antifungal activity against Botryotinia fuckeliana in Cucumber seedlings assessed as reduction gray mold diseases at 3 ug/ml compound spraying was performed 3 hr prior to inoculation by preventive effect assay; assay type: functional; design: scale not given: the % may be the effect or the level left
Cucumis sativus = experiment: Translaminar activity against kidney bean gray mold assessed as drug transport in Phaseolus vulgaris (kidney bean) from adaxial to abaxial at 100 to 200 ug/ml measured after 3 days; assay type: ADME, organism-based; details: in vivo, 72 h
Botrytis cinerea [6] = experiment: Antifungal activity against Botryotinia fuckeliana in Cucumber seedlings assessed as reduction of gray mold diseases compound spraying was performed 3 hr prior to inoculation by preventive effect assay; assay type: functional, organism-based
Botrytis cinerea [7] = experiment: Antifungal activity against Botryotinia fuckeliana in Cucumber seedlings assessed as reduction of gray mold diseases; assay type: functional, organism-based
Botrytis cinerea [8] = experiment: Antifungal activity against Botryotinia fuckeliana in Kidney bean assessed as Kidney bean gray mold diseased pods in field trials at 200 ug/ml 3 applications at 9 days intervals (reference value: 21%); assay type: functional
Botrytis cinerea [9] = experiment: Antifungal activity against Botryotinia fuckeliana in Eggplant seedlings assessed as Eggplant gray mold diseased flowers and fruits in field trials at 200 ug/ml 3 applications at 7 days intervals (reference value: 52.7%); assay type: functional
Botrytis cinerea [10] = experiment: Antifungal activity against Botryotinia fuckeliana in Cucumber seedlings assessed as reduction of gray mold diseases at 3 ug/ml compound spraying was performed 48 hr after inoculation by lesion development inhibitory assay; assay type: functional; design: scale not given: the % may be the effect or the level left
Botrytis cinerea [11] = experiment: Antifungal activity against Botryotinia fuckeliana in Eggplant seedlings assessed as Eggplant gray mold diseased flowers and fruits in field trials at 500 ug/ml 3 applications at 7 days intervals (reference value: 52.7%); assay type: functional
Botrytis cinerea [12] = experiment: Antifungal activity against Botryotinia fuckeliana in Kidney bean assessed as Kidney bean gray mold diseased pods in field trials at 500 ug/ml 3 applications at 9 days intervals (reference value: 21%); assay type: functional

COC(=O)NCc1cc(/C(C)=N/OCc2cccc(C)n2)ccc1Cl [Pyribencarb] was tested, and the Activity (Botrytis cinerea [1]) was 9.8%, the Activity (Botrytis cinerea [2]) was 5.3% and the Activity (Botrytis cinerea [3]) was 80.4%. For the same compound, the inhibition (Botrytis cinerea [4]) was “Active”, the Activity (Botrytis cinerea [5]) was 72.1% and the Drug transport (Cucumis sativus) was “Active”. The EC50 (Botrytis cinerea [6]) was 0.55 µg/mL (≈ 1.52 µM), the EC50 (Botrytis cinerea [7]) was 0.006 µg/mL (≈ 0.0166 µM) and the MIC (Botrytis cinerea [7]) was 0.1 µg/mL (≈ 0.276 µM). The Activity (Botrytis cinerea [8]) was 3.7%, the Activity (Botrytis cinerea [9]) was 3.4% and the Activity (Botrytis cinerea [10]) was 88.5%.

CC12CC1(C)C(=O)N(c1cc(Cl)cc(Cl)c1)C2=O (stereo not drawn) [PROCYMIDONE] gave an Activity (Botrytis cinerea [11]) of 12.3% and an Activity (Botrytis cinerea [12]) of 4.6%.

With N#Cc1c[nH]cc1-c1cccc2c1OC(F)(F)O2 [FLUDIOXONIL] the Activity (Botrytis cinerea [9]) was 16.8%.

In the case of O=[N+]([O-])c1cc(C(F)(F)F)c(Cl)c([N+](=O)[O-])c1Nc1ncc(C(F)(F)F)cc1Cl [FLUAZINAM], the Activity (Botrytis cinerea [12]) is reported as 7.8%.

O=C(Nc1ccccc1-c1ccc(Cl)cc1)c1cccnc1Cl [BOSCALID] gave an EC50 (Botrytis cinerea [6]) of 0.8 µg/mL (≈ 2.33 µM).

In the case of CC1(C(=O)Nc2ccc(O)c(Cl)c2Cl)CCCCC1 [FENHEXAMID], the EC50 (Botrytis cinerea [6]) is reported as 2.13 µg/mL (≈ 7.05 µM).
